Trehalose uptake data for one compound are collected here from PMC3429062, “A Novel Member of the Trehalose Transporter Family Functions as an H^+-Dependent Trehalose Transporter in the Reabsorption of Trehalose in Malpighian Tubules” (Frontiers in Physiology, 2012).

The assay has as its target T1, PvTRET1 (Polypedilum vanderplanki, UniProt A5LGM7).
T1 construct: gene Tret1; expressed from injected cRNA in Xenopus oocytes; construct described previously
T1 sequence (A5LGM7 1-504): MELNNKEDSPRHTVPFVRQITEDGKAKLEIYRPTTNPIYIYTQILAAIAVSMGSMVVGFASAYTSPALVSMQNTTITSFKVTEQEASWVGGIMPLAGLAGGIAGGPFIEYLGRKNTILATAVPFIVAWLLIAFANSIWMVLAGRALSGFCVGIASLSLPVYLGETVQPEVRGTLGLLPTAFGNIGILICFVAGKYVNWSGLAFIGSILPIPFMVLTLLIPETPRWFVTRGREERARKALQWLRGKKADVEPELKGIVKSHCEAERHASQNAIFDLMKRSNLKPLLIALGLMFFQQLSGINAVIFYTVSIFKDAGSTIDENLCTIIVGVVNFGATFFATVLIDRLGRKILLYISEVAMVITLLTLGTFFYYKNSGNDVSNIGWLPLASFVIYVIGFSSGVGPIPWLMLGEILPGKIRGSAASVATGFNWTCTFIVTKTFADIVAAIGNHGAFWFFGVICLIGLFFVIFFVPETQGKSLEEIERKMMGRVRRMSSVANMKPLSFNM
In words: uptake into cRNA-injected Xenopus oocytes, HPLC. It counts as cell-based. The conditions noted are these: 105 mM trehalose, various pH; transport.

Each structure is given as a SMILES string.

For `OC[C@H]1O[C@H](O[C@H]2O[C@H](CO)[C@@H](O)[C@H](O)[C@H]2O)[C@H](O)[C@@H](O)[C@@H]1O` [trehalose], the trehalose uptake result was “Trehalose uptake into Xenopus oocytes via PvTRET1 at various pH values”.
